The assay addresses T1, human NEP (Homo sapiens, UniProt P08473).
T1 construct: purchased R&D Systems, Minneapolis, MN 1182-ZN
Description: In vitro enzyme inhibition assay at human NEP (fluorogenic peptide substrate). Format: biochemical. The settings on record: recombinant human NEP; 10 μM fluorogenic substrate Mca-D-Arg-Arg-Leu-Dap-(Dnp)-OH; 37° C.; 30 minute preincubation; read-out: pKi value at human NEP (converted). How it is done:
In Vitro Assays for the Quantitation of Inhibitor Potencies (IC50) at Human and Rat NEP, and Human ACE
The inhibitory activities of compounds at human and rat neprilysin (EC 3.4.24.11; NEP) and human angiotensin converting enzyme (ACE) were determined using in vitro assays as described below.
Recombinant human NEP and recombinant human ACE were obtained commercially (R&D Systems, Minneapolis, MN, catalog numbers 1182-ZN and 929-ZN, respectively). The fluorogenic peptide substrate Mca-D-Arg-Arg-Leu-Dap-(Dnp)-OH (Medeiros et al. (1997) Braz. J. Med. Biol. Res. 30:1157-62; Anaspec, San Jose, CA) and Abz-Phe-Arg-Lys(Dnp)-Pro-OH (Araujo et al. (2000) Biochemistry 39:8519-8525; Bachem, Torrance, CA) were used in the NEP and ACE assays respectively.
The assays were performed in 384-well white opaque plates at 37° C. using the fluorogenic peptide substrates at a concentration of 10 μM in Assay Buffer (NEP: 50 mM HEPES, pH 7.5, 100 mM NaCl, 0.01% polyethylene glycol sorbitan monolaurate (Tween-20), 10 μM ZnSO4; ACE: 50 mM HEPES, pH 7.5, 100 mM NaCl, 0.01% Tween-20, 1 μM ZnSO4).
Test compounds were assayed over the range of concentrations from 10 μM to 20 pM. Test compounds were added to the enzymes and incubated for 30 minute at 37° C. prior to initiating the reaction by the addition of substrate. Reactions were terminated after 20 minutes of incubation at 37° C. by the addition of glacial acetic acid to a final concentration of 3.6% (v/v).
Plates were read on a fluorometer with excitation and emission wavelengths set to 320 nm and 405 nm, respectively. Inhibition constants were obtained by nonlinear regression of the data using the equation (GraphPad Software, Inc., San Diego, CA): ν=ν0/[1+(I/K′)] where ν is the reaction rate, ν0 is the uninhibited reaction rate, I is the inhibitor concentration and K′ is the apparent inhibition constant.
T1 sequence (P08473 52-750 limits assumed): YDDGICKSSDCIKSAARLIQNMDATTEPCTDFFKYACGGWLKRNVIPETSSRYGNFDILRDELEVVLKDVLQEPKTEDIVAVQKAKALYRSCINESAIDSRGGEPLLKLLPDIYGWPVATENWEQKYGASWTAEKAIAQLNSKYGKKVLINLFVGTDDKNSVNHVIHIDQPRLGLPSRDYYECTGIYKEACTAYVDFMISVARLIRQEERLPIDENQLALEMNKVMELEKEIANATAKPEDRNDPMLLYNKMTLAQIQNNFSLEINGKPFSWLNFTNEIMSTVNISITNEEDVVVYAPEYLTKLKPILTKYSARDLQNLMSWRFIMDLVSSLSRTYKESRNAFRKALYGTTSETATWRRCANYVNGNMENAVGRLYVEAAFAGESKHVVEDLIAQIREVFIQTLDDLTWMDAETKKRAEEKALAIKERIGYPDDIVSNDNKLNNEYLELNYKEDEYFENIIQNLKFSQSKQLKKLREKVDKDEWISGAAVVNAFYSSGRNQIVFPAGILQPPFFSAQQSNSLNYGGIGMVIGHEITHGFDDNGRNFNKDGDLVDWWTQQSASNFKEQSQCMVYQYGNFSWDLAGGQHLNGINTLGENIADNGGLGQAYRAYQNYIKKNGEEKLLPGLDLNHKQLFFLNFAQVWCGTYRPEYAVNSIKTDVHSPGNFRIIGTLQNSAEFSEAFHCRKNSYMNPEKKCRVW
For the molecule `CC(C)OC[C@](C)(C[C@@H](Cc1ccc(-c2cc(Cl)ccc2F)cc1)NC(=O)c1cnn[nH]1)C(=O)O` [Example 2R, (2S,4R)-5-(5′-Chloro-2′-fluorobiphenyl-4-yl)-2-isopropoxymethyl-2-methvl-4-[(3H-[1,2,3]triazole-4-carbonyl)amino]pentanoic Acid], the Ki was no more than 1 nM. On to `Cc1ccc(Cl)cc1-c1ccc(C[C@H](C[C@@](C)(CO)C(=O)O)NC(=O)c2c[nH]nn2)cc1` [Example 2G, (2S,4R)-5-(5′-Chloro-2′-methylbiphenyl-4-yl)-2-hydroxymethyl-2-methyl-4-[(1H-[1,2,3]triazole-4-carbonyl)amino]pentanoic Acid], for which the Ki was no more than 1 nM. The figure for `C[C@@](COCCO)(C[C@@H](Cc1ccc(-c2cccc(Cl)c2)cc1)NC(=O)c1c[nH]nn1)C(=O)O` [Example 2L, (2S,4R)-5-(3′-Chlorobiphenyl-4-yl)-2-(2-hydroxyethoxymethyl)-2-methyl-4-[(1H-[1,2,3]triazole-4-carbonyl)amino]pentanoic Acid] is no more than 1 nM; for `C[C@@](CO)(C[C@@H](Cc1ccc(-c2ccccc2)cc1)NC(=O)c1cnn[nH]1)C(=O)O` [(2S,4R)-5-biphenyl-4-yl-2-hydroxymethyl-2-methyl-4-[(3H-[1,2,3]triazole-4-carbonyl)amino]-pentanoic acid, reference compound] it is no more than 1 nM; for `CCOn1cc(C(=O)N[C@H](Cc2ccc(-c3cc(Cl)ccc3F)cc2)C[C@@](C)(CO)C(=O)O)nn1` [Example 4C, (2S,4R)-5-(5′-Chloro-2′-fluorobiphenyl-4-yl)-4-[(1-ethoxy-1H-[1,2,3]triazole-4-carbonyl)-amino]-2-hydroxymethyl-2-methylpentanoic Acid] it is no more than 1 nM. The figure for `CC(C)C(=O)OC[C@](C)(C[C@@H](Cc1ccc(-c2ccccc2)cc1)NC(=O)c1cnn[nH]1)C(=O)O` [Example 1E, (2S,4R)-5-Biphenyl-4-yl-2-isobutyryloxymethyl-2-methyl-4-[(3H-[1,2,3]triazole-4-carbonyl)amino]pentanoic Acid] is no more than 1 nM; for `CCOC[C@](C)(C[C@@H](Cc1ccc(-c2ccccc2)cc1)NC(=O)c1c[nH]nn1)C(=O)O` [Example 1I, (2S,4R)-5-Biphenyl-4-yl-2-ethoxymethyl-2-methyl-4-[(1H-[1,2,3]triazole-4-carbonyl)amino]pentanoic Acid] it is 1 to 3.16 nM.

As to `CCOc1cc(C(=O)N[C@H](Cc2ccc(-c3cccc(Cl)c3)cc2)C[C@@](C)(CO)C(=O)O)n[nH]1` [Example 7A, (2S,4R)-5-(3′-Chlorobiphenyl-4-yl)-4-[(5-ethoxy-1H-pyrazole-3-carbonyl)amino]-2-hydroxymethyl-2-methylpentanoic Acid], the Ki was no more than 1 nM. The figure for `COC[C@](C)(C[C@@H](Cc1ccc(-c2cccc(Cl)c2)cc1)NC(=O)c1c[nH]nn1)C(=O)O` [Example 2J, (2S,4R)-5-(3′-Chlorobiphenyl-4-yl)-2-methoxymethyl-2-methyl-4-[(1H-[1,2,3]triazole-4-carbonyl)amino]pentanoic Acid] is 1 to 3.16 nM; for `C[C@@](CO)(C[C@@H](Cc1ccc(-c2cccc(C#N)c2)cc1)NC(=O)c1c[nH]nn1)C(=O)O` [Example 2H, (2S,4R)-5-(3′-Cyanobiphenyl-4-yl)-2-hydroxymethyl-2-methyl-4-[(1H-[1,2,3]triazole-4-carbonyl)amino]pentanoic Acid] it is 3.16 to 10 nM. On to `C[C@@](COCCCO)(C[C@@H](Cc1ccc(-c2cc(Cl)ccc2F)cc1)NC(=O)c1cnn[nH]1)C(=O)O` [Example 2P, (2S,4R)-5-(5′-Chloro-2′-fluorobiphenyl-4-yl)-2-(3-hydroxypropoxymethyl)-2-methyl-4-[(3H-[1,2,3]triazole-4-carbonyl)amino]pentanoic Acid], for which the Ki is no more than 1 nM. Consider `CCOC[C@](C)(C[C@@H](Cc1ccc(-c2cccc(Cl)c2)cc1)NC(=O)c1cc(O)no1)C(=O)O` [Example 6M], for which the Ki was no more than 1 nM. As to `CCCc1cc(C(=O)N[C@H](Cc2ccc(-c3cc(Cl)ccc3F)cc2)C[C@@](C)(CO)C(=O)O)on1` [Example 6J, (2S,4R)-5-(5′-Chloro-2′-fluorobiphenyl-4-yl)-2-hydroxymethyl-2-methyl-4-[(3-propylisoxazole-5-carbonyl)amino]pentanoic Acid], the Ki is no more than 1 nM. The figure for `CC(C)Cc1cc(C(=O)N[C@H](Cc2ccc(-c3cc(Cl)ccc3F)cc2)C[C@@](C)(CO)C(=O)O)on1` [Example 6I, (2S,4R)-5-(5′-Chloro-2′-fluorobiphenyl-4-yl)-2-hydroxymethyl-4-[(3-isobutylisoxazole-5-carbonyl)amino]-2-methylpentanoic Acid] is no more than 1 nM; for `CC(C)c1cc(C(=O)N[C@H](Cc2ccc(-c3cc(Cl)ccc3F)cc2)C[C@@](C)(CO)C(=O)O)[nH]n1` [Example 7C, (2S,4R)-5-(5′-Chloro-2′-fluorobiphenyl-4-yl)-2-hydroxymethyl-4-[(5-isopropyl-2H-pyrazole-3-carbonyl)amino]-2-methylpentanoic Acid] it is no more than 1 nM; for `C[C@@](COCCCO)(C[C@@H](Cc1ccc(-c2cccc(Cl)c2)cc1)NC(=O)c1c[nH]nn1)C(=O)O` [Example 2M, (2S,4R)-5-(3′-Chlorobiphenyl-4-yl)-2-(3-hydroxypropoxymethyl)-2-methyl-4-[(1H-[1,2,3]triazole-4-carbonyl)amino]pentanoic Acid] it is no more than 1 nM.

With `COc1ccccc1-c1ccc(C[C@H](C[C@@](C)(CO)C(=O)O)NC(=O)c2c[nH]nn2)cc1` [Example 2A, (2S,4R)-2-Hydroxymethyl-5-(2′-methoxybiphenyl-4-yl)-2-methyl-4-[(1H-[1,2,3]triazole-4-carbonyl)amino]pentanoic Acid], the Ki was 1 to 3.16 nM.

Turning to `COC[C@](C)(C[C@@H](Cc1ccc(-c2cc(Cl)ccc2F)cc1)NC(=O)c1c[nH]nn1)C(=O)O` [Example 2N, (2S,4R)-5-(5′-Chloro-2′-fluorobiphenyl-4-yl)-2-methoxymethyl-2-methyl-4-[(1H-[1,2,3]triazole-4-carbonyl)amino]pentanoic Acid], the Ki is no more than 1 nM. The figure for `C[C@@](COCCO)(C[C@@H](Cc1ccc(-c2cccc(Cl)c2)cc1)NC(=O)c1cc(O)no1)C(=O)O` [Example 6L, (2S,4R)-5-(3′-Chlorobiphenyl-4-yl)-2-(2-hydroxyethoxymethyl)-4-[(3-hydroxyisoxazole-5-carbonyl)amino]-2-methylpentanoic Acid] is no more than 1 nM; for `CC(C)CC(=O)OC[C@](C)(C[C@@H](Cc1ccc(-c2ccccc2)cc1)NC(=O)c1cnn[nH]1)C(=O)O` [Example 1F, (2S,4R)-5-Biphenyl-4-yl-2-methyl-2-(3-methylbutyryloxymethyl)-4-[(3H-[1,2,3]triazole-4-carbonyl)amino]pentanoic Acid] it is no more than 1 nM. The figure for `COC[C@](C)(C[C@@H](Cc1ccc(-c2cccc(Cl)c2)cc1)NC(=O)c1cc(OC)no1)C(=O)O` [Example 6B, (2S,4R)-5-(3′-Chlorobiphenyl-4-yl)-4-[(3-methoxyisoxazole-5-carbonyl)amino]-2-methoxymethyl-2-methylpentanoic Acid] is 10 to 100 nM; for `COC[C@](C)(C[C@@H](Cc1ccc(-c2ccccc2)cc1)NC(=O)c1c[nH]nn1)C(=O)O` [Example 1J, (2S,4R)-5-Biphenyl-4-yl-2-methoxymethyl-2-methyl-4-[(1H-[1,2,3]triazole-4-carbonyl)amino]pentanoic Acid] it is 1 to 3.16 nM; for `COn1cc(C(=O)N[C@H](Cc2ccc(-c3cc(Cl)ccc3F)cc2)C[C@@](C)(CO)C(=O)O)nn1` [Example 4B, (2S,4R)-5-(5′-Chloro-2′-fluorobiphenyl-4-yl)-2-hydroxymethyl-4-[(1-methoxy-1H-[1.2.3]triazole-4-carbonyl)amino]-2-methylpentanoic Acid] it is no more than 1 nM. The figure for `C[C@@](CO)(C[C@@H](Cc1ccc(-c2cc(Cl)ccc2F)cc1)NC(=O)c1coc(=O)[nH]1)C(=O)O` [Example 5C, (2S,4R)-5-(5′-Chloro-2′-fluorobiphenyl-4-yl)-2-hydroxymethyl-2-methyl-4-[(2-oxo-2,3-dihydro-oxazole-4-carbonyl)amino]pentanoic Acid] is no more than 1 nM; for `CCc1cc(C(=O)N[C@H](Cc2ccc(-c3cc(Cl)ccc3F)cc2)C[C@@](C)(CO)C(=O)O)on1` [Example 6H] it is no more than 1 nM. As to `CCOC[C@](C)(C[C@@H](Cc1ccc(-c2cc(Cl)ccc2F)cc1)NC(=O)c1c[nH]nn1)C(=O)O` [Example 2O, (2S,4R)-5-(5′-Chloro-2′-fluoro-biphenyl-4-yl)-2-ethoxymethyl-2-methyl-4-[(1H-[1,2,3]triazole-4-carbonyl)amino]pentanoic Acid], the Ki is no more than 1 nM.

For the origin of these results see US11919888B2, “Neprilysin inhibitors” (THERAVANCE BIOPHARMA R&D IP, LLC, priority 2012, dated 2024).
